Test: Human HepG2 cell viability assay in 384 well format
Type: toxicity, cell-based
Design: dose 125 nL, time 70.5 hour; cytotoxicity at 70.5 h: concentration not given beside the values
Conditions: HepG2 cells, read-out: Inhibition

Row | SMILES | cytotoxicity at 70.5 h
1 | Cc1cccc(COC[C@H]2CC[C@H]3[C@H](CCN3Cc3ccco3)O2)n1 | -4.41%
2 | CC(=O)NCCNC(=O)CN1CCOC(Cn2cccn2)C1 (configuration not stated) | 0.989%
3 | CS(=O)(=O)NCc1cn2c(n1)CN(Cc1cccnc1)CC2 | 9.87%
4 | FC(F)Oc1ccc(CNCc2cc(Cl)c3c(c2)OCO3)cc1 | -5.5%
5 | Fc1ccc(CC2CCN(Cc3cscn3)CC2)cc1 | -14.2%
6 | O=C(NC1CC1)N1CC[C@H]2[C@H]1CCN2c1nncs1 | 6.09%
7 | CCOCCNC(=O)CCC1CCCO1 (configuration not stated) | 35.5%
8 | CCc1n[nH]c(C2CN(C(=O)c3cnc(C)cn3)CCO2)n1 (configuration not stated) | -10.6%
9 | Cc1noc(C)c1C(=O)N1CCC(c2[nH]ncc2S(C)(=O)=O)C1 (configuration not stated) | -1.52%
10 | CC(=O)N1CCCC1c1nnn2cc(NCc3cccnc3)ccc12 (configuration not stated) | -18.3%
11 | O=C(CCc1ccccc1F)N1CCCC(OCc2cccnc2)C1 (configuration not stated) | -9.56%
12 | CN(C)S(=O)(=O)NC1CCCc2c1cnn2-c1ccc(C(C)(C)C)cc1 (configuration not stated) | -2.4%
13 | CN(C)S(=O)(=O)CCCOc1cccc(-n2ccnc2)c1 | -3.93%
14 | O=C(C(CNCc1ccncc1)c1ccccc1)N1CCOCC1 (configuration not stated) | -5.58%
15 | CC(c1ccccc1)N(C)C(=O)Cn1cc(NC(=O)C(C)(C)C)cn1 (configuration not stated) | -3.77%
16 | CC(C)c1nnc2n1CCN(CC(=O)N1CCc3ccccc3C1)C2 | 11.4%
17 | CCNC(=O)CN(CC)Cc1nc2c(F)cccc2n1CC | 21.7%
18 | CN(Cc1ccccc1)CC(O)Cn1cnc2ccccc2c1=O (configuration not stated) | 6.62%
19 | NCc1cccc(NC(=O)CCN2CCOCC2)c1 | -9.57%

Row | SMILES | cytotoxicity at 70.5 h
20 | CS(=O)(=O)NCCCn1ccc2ccccc21 | -13.2%
21 | Cn1cnc2c1CCN(CCS(=O)(=O)c1ccccc1)C2 | -17%
22 | Cc1ccc(C(=O)N2C[C@@H]3C[C@@H](c4nnc(C5CC5)o4)O[C@@H]3C2)s1 | -3.56%
23 | COCCN1C[C@@H]2[C@@H](OC)CCN(Cc3ccncc3)[C@@H]2C1 | -0.354%
24 | Cc1c(C(=O)N2CCC2(C)C)nnn1-c1cccc2cnccc12 | -12.7%
25 | CC(=O)Nc1ccc2nn(C(C)C)cc2c1 | -8.47%
26 | CCSc1cc(C(=O)N(C(C)C)C2CC2)ccn1 | -3.36%
27 | COc1cc(N2CCC3(CCCN(Cc4ccccn4)C3)C2)ncn1 (configuration not stated) | -5.46%
28 | COc1ccccc1-c1ncc(CN2C[C@@H](N(C)C)[C@H](C(C)C)C2)s1 | -5.83%
29 | O=C(O)c1cn(CC2CCCN(c3ccc4ccccc4n3)C2)nn1 (configuration not stated) | -10.4%
30 | CCc1ccsc1C(=O)N1CCN(CC(C)O)CC1 (configuration not stated) | -2.62%
31 | COc1cc(-c2cc(-c3ccn(C)c3)nc(N)c2C#N)cc(OC)c1O | -1.48%
32 | O=C(c1ccncc1)N1CCCn2nnc(Cn3cccn3)c2C1 | -8.56%
33 | CSCCCNC(=O)C(c1ccccc1C)N(C)C (configuration not stated) | -6.07%
34 | Cc1nc(C2CCCN2Cc2cc(=O)n(C)c(=O)n2C)no1 (configuration not stated) | -1.72%
35 | COC[C@]1(O)CCN(Cc2cnc(N(C)C)nc2)CC1(C)C | -18.8%
36 | COc1cccc(C(=O)N2CCCC(c3cc(C)[nH]n3)C2)c1OC (configuration not stated) | -17.6%
37 | Cc1nc(CN2CCC(N(C)Cc3nnc(C4CC4)n3C)C2)oc1C (configuration not stated) | 10.4%
38 | COc1ccc(C)c2c1N(C(=O)c1cnc(C)s1)CCC2 | -1.73%

Row | SMILES | cytotoxicity at 70.5 h
39 | CSc1ccc(CCNC(=O)Cc2c(C)n[nH]c2C)cc1 | -7.74%
40 | CN(C)C(=O)c1coc(COc2ccccc2)n1 | 15.6%
41 | CCNC(=O)NC1CN(CC(=O)NCc2ccccc2C)C[C@@H]1OC (some centres not stated) | 1.44%
42 | CCCc1nc(NCCOC)c2c(n1)c(C)nn2CC | -7.81%
43 | COc1ccccc1CC(=O)N1CCC(NCc2ccc(C)o2)CC1 | -11.2%
44 | Cn1nnnc1SCCNC(=O)c1cccc2ccnn12 | 3.9%
45 | Cn1ccnc1CCNC(=O)C1CCCN(Cc2cccc(F)c2)C1 (configuration not stated) | -7.53%
46 | CCN(C)C[C@@H]1CN(S(=O)(=O)c2cccc(C#N)c2)C[C@@H]1CO | -5.18%
47 | Cc1nc(CSCCC(=O)NCC(=O)NC(C)C)cs1 | 1.26%
48 | CC(C)Cc1cc(C(=O)N2CCC(Cc3cnn(C)c3)C2)cc(O)n1 (configuration not stated) | -11.1%
49 | Cc1csc(CNC(=O)N(C)Cc2nnc3n2CCC3)n1 | -12.1%
50 | Cc1noc(C)c1CN1C[C@@H](N(C)Cc2ccco2)[C@H]2OCCC[C@H]21 | -6.48%
51 | COc1ccc(-c2nnc(SC(C)C(=O)NC3CCCC3)[nH]2)c(OC)c1 (configuration not stated) | 42.2%
52 | COc1ccc(C(=O)N2CCN(C(=O)c3csc(C(C)C)n3)CC2)cc1 | 28%
53 | Cc1nn(C)c(N(C)C)c1CNCCCN(C)S(C)(=O)=O | -6.18%
54 | O=C(c1cccc(F)c1)N1C[C@@H](CN2CCCCC2)[C@@H](CO)C1 | -7.48%
55 | O=C(NCc1ccco1)[C@@]12CCO[C@@H]1CCN(Cc1nccs1)C2 | 1.38%
56 | COC(=O)[C@@H](NC(=O)c1coc(COc2cccc(F)c2)n1)C(C)C | 4.83%
57 | Cc1ccc(CN2CCC3(CC2)CCN(Cc2ccco2)CC3)cc1 | -6.1%

Reference: ChEMBL document CHEMBL3507680, “University of Dundee, Gates Library screen for HepG2 cell viability”
